Six molecules from PubChem BioAssay (NCI) can be followed below.

What all share (test): NCI anticancer screen, dose series, 48 h
For experiment [1], the system named is HL-60(TB) leukemia.
In experiment [2] the test system is UO-31 renal.
Experiment [3] relates to NCI-H522 lung.
Experiment [4] relates to SN12C renal.
Experiment [5] deals with IGROV1 ovarian.
Experiment [6] deals with SF-539 CNS.
Experiment [7] has as its system U251 CNS.
For experiment [8], the system named is NCI-H23 lung.
In experiment [9] the test system is T-47D breast.
In experiment [10] the test system is RXF 393 renal.
Experiment [11] has as its system OVCAR-5 ovarian.
Experiment [12] deals with UACC-257 melanoma.
The subject of experiment [13] is HT29 colon.
In experiment [14] the test system is NCI-H460 lung.
Experiment [15] has as its system SF-295 CNS.
In experiment [16] the test system is ACHN renal.
Experiment [17] concerns SK-MEL-28 melanoma.
Experiment [18] concerns CCRF-CEM leukemia.
Experiment [19] concerns HOP-92 NSCLC.

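Five compound concentrations were applied to cells in 96-well plates for 48 hours; endpoints were derived by simple linear interpolation of the resulting dose-response curve. TGI denotes the concentration required for complete inhibition of growth.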

Take `COC1Cc2c(C)c(OC(C)=O)c3cccnc3c2O1` (centres undefined): the TGI in [1] is 25.3 µM; in experiment [2] it was 27.3 µM; in experiment [3], 13.6 µM; in [4], 37.8 µM; in experiment [5] it was 37.3 µM; in [6], over 100 µM. For the same molecule, the TGI was over 100 µM in [7]; 36.3 µM in experiment [8]; 62.3 µM in [9]; 31.7 µM in [10]; 32.7 µM in [11]; 29.8 µM in experiment [12]. Moreover, the TGI in experiment [13] was over 100 µM; in experiment [14] it was 61.5 µM; in experiment [15], 93.3 µM; in experiment [16], 22.8 µM; in experiment [17], 53 µM; in [18] it was 34.1 µM. The TGI in [19] is 33.8 µM.

`COC(C)(C)C(O)C(O)C[C@H](C)C1CC=C2C1(C)CCC1[C@@]3(C)CCC(OC(C)=O)C(C)(C)C3CC(OC3OC(COC(C)=O)C(O)C(O)C3O)[C@@]21C` (some centres undefined): the TGI in experiment [1] is 5.54 µM; in experiment [2] it was 2.07 µM; in [3] it was 8.7 µM; in experiment [4], over 10 µM; in experiment [5], 8.04 µM; in experiment [6], over 10 µM. In addition, the TGI was over 10 µM in experiment [7]; over 10 µM in experiment [8]; 8.73 µM in experiment [9]; over 10 µM in [10]; over 10 µM in experiment [11]; over 10 µM in experiment [12]. For the same molecule, the TGI was 9.01 µM in experiment [13]; over 10 µM in experiment [14]; over 10 µM in experiment [15]; over 10 µM in [16]; over 10 µM in [17]; 7.96 µM in [18]. The molecule also came in with a TGI in experiment [19] of over 10 µM.

As to `COC(=O)c1cc(Br)c(C(=O)C(Cl)(Cl)Cl)[nH]1`, the TGI in experiment [1], in [2], in experiment [3], in experiment [4], in [5] and in [6] was over 100 µM in each case. The TGI in experiment [7], in [8], in experiment [9], in [10], in experiment [11] and in experiment [12] was over 100 µM in each case. In addition, the TGI in experiment [13], in experiment [14], in experiment [15], in [16], in experiment [17] and in experiment [18] was over 100 µM each time. The same molecule displayed a TGI in experiment [19] of over 100 µM.

`NCC(=O)C(O)C(O)C(O)CO` (centres undefined): the TGI in experiment [1], in experiment [2], in experiment [3], in [4], in [5] and in [6] was over 100 µM in each case. For the same molecule, the TGI in [7], in experiment [8], in [9], in experiment [10], in experiment [11] and in experiment [12] was over 100 µM each time. The TGI in experiment [13], in [14], in experiment [15], in experiment [16], in experiment [17] and in experiment [18] was over 100 µM in each case. Further, the TGI in [19] was over 100 µM.

With `COC(=O)C1([C@@H]2C[C@@H](O)[C@]3(C)CC/C=C(\C)CCC[C@H](C)[C@H](O)[C@@H]2O3)CC1`, the TGI was over 100 µM in experiment [1]; 60.3 µM in experiment [2]; over 100 µM in [3]; over 100 µM in experiment [4]; over 100 µM in [5]; over 100 µM in experiment [6]. For the same molecule, the TGI in [7], in [8], in experiment [9], in experiment [10], in experiment [11] and in experiment [12] was over 100 µM in each case. In addition, the TGI in experiment [13], in experiment [14], in experiment [15], in experiment [16], in experiment [17] and in experiment [18] was over 100 µM throughout. Further, the TGI in experiment [19] was over 100 µM.

Consider `C=CCNC1=C2C[C@@H](C)C[C@@H](OC)[C@H](OC(=O)CN(C)C)[C@H](C)/C=C(\C)[C@@H](OC(N)=O)[C@H](OC)/C=C\C=C(/C)C(=O)NC(=CC1=O)C2=O`, for which the TGI in experiment [1] is 13.7 µM; in experiment [2], 24.1 µM; in experiment [3] it was 18.3 µM; in experiment [4] it was 17.7 µM; in experiment [5], 13.5 µM; in experiment [6] it was 16.2 µM. Besides, the TGI is 19.7 µM in [7]; 19.8 µM in experiment [8]; over 42.2 µM in experiment [9]; over 41.3 µM in experiment [10]; 25.7 µM in experiment [11]; 17.2 µM in [12]. Besides, the TGI in experiment [13] is 12.7 µM; in experiment [14], 15.6 µM; in experiment [15], 13.5 µM; in experiment [16], 20.1 µM; in experiment [17], 25.7 µM; in experiment [18], over 59.3 µM. In experiment [19], this molecule had a TGI of 23.3 µM.
